In US20260133193A1, “COMPOSITIONS AND METHODS FOR TREATING INFLAMMATORY DISEASES” (University of Washington, priority 2018, published 2026):
Entries after “also recorded” stand apart in the source; their conditions may differ.

Columns and labels:
neutrophils = test: ROS analysis in neutrophils (DHR123, OxyBURST); type: cell-based, human; details: flow cytometry and fluorimetry, cell impermeable ROS dye
FcgRIIA on neutrophils = test: FcgRIIA shedding, flow cytometry of neutrophil cell surface FcgRs; type: cell-based, human; details: flow cytometry
Source text: To determine the mechanism for the TLR-induced reduction in RNP-IC phagocytosis, we analyzed the neutrophil surface expression of FcgRs after exposure to TLR ligand. Neutrophils were activated with R848 and cell surface expression of FcgRs analyzed by flow cytometry. The results were presented as FcgR levels as compared to no R848 added (% of control). The experiment was repeated five (FcgRI), seven (FcgRIII), and twenty-five (FcgRIIA) times; combined results were compared using paired t test (FcgRIIA, P<0.0001; FcgRI, P=0.027; FcgRIII, P=0.0044). […] In this experiment, neutrophils were activated with the TLR7/8 agonist R848 and analyzed for FcgRIIA at different time-points and concentrations. The experiment was repeated four (concentration) and six (kinetics) times; combined results were compared using paired t test (30 min, P=0.0158; 60 min, P<0.0001; 120 min, P=0.0003; 0.125 μg/mL, P=0.0071; 0.25 μg/mL, P=0.0058; 0.5 μg/mL, P=0.0008; 1 μg/mL, P<0.0001; 2 μg/mL, P<0.0001). […] For these experiments, neutrophils were activated with TLR ligands (LPS, 1 μg/mL, PAM3CSK4 (5 μg/mL), CpG DNA (2 μg/mL), Loxoribine (0.1 mM), CL075 (2.5 μg/mL) or R848 (2 μg/mL)) for 60 minutes or 4 hours and analyzed for FcgRIIA, FcgRII or CD11b and CD66b cell surface expression by flow cytometry. Experiments were repeated six (LPS, P=0.0008), eight (CpG DNA, P=0.035; Loxoribine, P<0.0001, and CL075, P<0.0001), ten (PAM3CSK4, P<0.0001) and forty times (R848, P<0.0001); combined results were compared using paired t test. Additional experiments were repeated four and eight times; combined results were compared using paired t test (CD11b: R848, P<0.0001; LPS, P=0.0002; PAM, P<0.0001; CpG DNA, P<0.0001; CD66b: R848, P<0.0001; LPS, P<0.0001; PAM, P<0.0001; CpG DNA, P=0.014).
Neutrophils were activated by LPS (1 μg/mL), R848 (2 μg/mL), PAM3CSK4 (5 μg/mL), Loxoribine (0.1 mM), CL075 (2.5 μg/mL) or CpG DNA (2 μg/mL) for 30 minutes, followed by analysis of cell surface expression of CD32A (IV.3; Stemcell Technologies, FUN-2, BioLegend), CD16 (clone 3G8), CD64 (clone 10.1), and CD66b (all from BioLegend) by flow cytometry. For intracellular staining, neutrophils were fixed in 2% paraformaldehyde for 10 minutes, permeabilized with saponin (diluted 1:1000 in PBS) for 15 minutes and stained with anti-CD32A antibodies diluted 1:100. In some experiments, neutrophils were incubated with inhibitors (DPI (25 μM, Sigma), apocynin (100 μM, Sigma), GM-6001 (10 μM, Enzo Life Sciences), LY294002 (10 μM), cOmplete Protease Inhibitor Cocktail Tablets (1× dissolved in H2O, Roche), neutrophil elastase IV inhibitor (25 μM, Calbiochem), E-64 (1 μM, Sigma), 4-(2-Aminoethyl)benzenesulfonyl fluoride hydrochloride (AEBSF, 0.1 mM, Sigma), CMK (25 μM, Enzo Life Sciences), cytochalasin B (5 μM, Sigma) or chymostatin (10 μg/mL, Sigma)) or recombinant furin (100 ng/mL, maximal dose tolerated by the neutrophils, Peprotech) 30 minutes prior to addition of stimuli. In some experiments cell surface levels of B cell activating factor (BAFF, Biolegend) was analyzed according to the same protocol as described above. Monocytes and pDCs were detected using antibodies to CD14 (BioLegend) and CD304 (Miltenyi Biotech), respectively.

CCOCc1nc2c(N)nc3ccccc3c2n1CC(C)(C)O [R848]
cellular localization of ROS generation (neutrophils): induced intracellular generation of ROS, but no detectable extracellular ROS
neutrophil cell surface expression of FcgRIIA after stimulus (FcgRIIA on neutrophils; clone IV.3, vs non-stimulated): significantly reduced; also recorded: time- and dose-dependent
neutrophil surface levels of FcgRIIIB and FcgRI after stimulus (FcgRIIA on neutrophils; vs no R848): increased
